Assay results from ChEMBL document CHEMBL1201862, “PubChem BioAssay data set” (2004).
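Dose response: 5 concentrations. Exposure: 48 h. Format: 96-well plates. Endpoint: linear interpolation; highest concentration if not reached. Here, GI50 denotes the concentration required for 50% inhibition of growth.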 The source made the active and inactive calls. No stated cut-off is given here; in the data, active = GI50 up to about 1.1 µM and inactive = higher.

Legend:
Assay in all cases: inhibition of tumour cell growth, NCI panel, 48 h
BT-549 = test system: BT-549
EKVX = test system: EKVX
HCT-116 = test system: HCT-116
HOP-62 = test system: HOP-62
K562 = test system: K562
KM12 = test system: KM12
M14 = test system: M14
MCF7 = test system: MCF7
MDA-N = test system: MDA-N
MOLT-4 = test system: MOLT-4
NCI-H226 = test system: NCI-H226
NCI-H522 = test system: NCI-H522
OVCAR-8 = test system: OVCAR-8
RXF 393 = test system: RXF 393
SF-295 = test system: SF-295
SK-MEL-5 = test system: SK-MEL-5
U-251 = test system: U-251
UACC-62 = test system: UACC-62

| Compound | GI50 (BT-549) | GI50 (EKVX) | GI50 (HCT-116) | GI50 (HOP-62) | GI50 (K562) | GI50 (KM12) | GI50 (M14) | GI50 (MCF7) | GI50 (MDA-N) | GI50 (MOLT-4) | GI50 (NCI-H226) | GI50 (NCI-H522) | GI50 (OVCAR-8) | GI50 (RXF 393) | GI50 (SF-295) | GI50 (SK-MEL-5) | GI50 (U-251) | GI50 (UACC-62) |
| --- | --- | --- | --- | --- | --- | --- | --- | --- | --- | --- | --- | --- | --- | --- | --- | --- | --- | --- |
| COc1c2occc2c(N)c2ccc(=O)oc12 | > 100 µM (inactive) | 51.9 µM (inactive) | > 100 µM (inactive) | > 100 µM (inactive) | > 100 µM (inactive) | > 100 µM (inactive) | > 100 µM (inactive) | > 100 µM (inactive) | > 100 µM (inactive) | > 100 µM (inactive) | 29.5 µM (inactive) | 75 µM (inactive) | > 100 µM (inactive) | 15.3 µM (inactive) | > 100 µM (inactive) | 35 µM (inactive) | > 100 µM (inactive) | 41.6 µM (inactive) |
| Brc1ccc(/N=N/N2CCCCC2)cc1 | 98.2 µM (inactive) | 40.1 µM (inactive) | 34.2 µM (inactive) | 67 µM (inactive) | 27.4 µM (inactive) | 27 µM (inactive) | 85.9 µM (inactive) | 35.5 µM (inactive) | 57.3 µM (inactive) | 19.9 µM (inactive) | > 100 µM (inactive) | 24 µM (inactive) | 45.6 µM (inactive) | 38.3 µM (inactive) | 35.6 µM (inactive) | 34.5 µM (inactive) | 54 µM (inactive) | 72.9 µM (inactive) |
| COc1cc(Nc2cc(Cl)cc(Cl)c2)nc(N)n1 | 17.1 µM (inactive) | 6.11 µM (inactive) | 16.9 µM (inactive) | 17.5 µM (inactive) | 30.7 µM (inactive) | 17.1 µM (inactive) | 20.1 µM (inactive) | 27.2 µM (inactive) | 27.1 µM (inactive) | 16.6 µM (inactive) | 19.4 µM (inactive) | 20.4 µM (inactive) | 18.9 µM (inactive) | 14.5 µM (inactive) | 18.6 µM (inactive) | 15.3 µM (inactive) | 15.2 µM (inactive) | 17.1 µM (inactive) |
| Nc1nc(=O)c(/N=N/c2ccc([As](=O)(O)O)cc2)c(N)[nH]1 | > 100 µM (inactive) | > 100 µM (inactive) | > 100 µM (inactive) | > 100 µM (inactive) | > 100 µM (inactive) | > 100 µM (inactive) | > 100 µM (inactive) | > 100 µM (inactive) | > 100 µM (inactive) | > 100 µM (inactive) | > 100 µM (inactive) | > 100 µM (inactive) | > 100 µM (inactive) | > 100 µM (inactive) | > 100 µM (inactive) | > 100 µM (inactive) | > 100 µM (inactive) | > 100 µM (inactive) |
| O=C(OC1C#CCSCC#C/C=C\1)c1ccc2c(c1)C(=O)c1ccccc1C2=O (stereo not given) | 22.6 µM (inactive) | 64.7 µM (inactive) | 36.5 µM (inactive) | 16.5 µM (inactive) | > 100 µM (inactive) | > 100 µM (inactive) | 65.2 µM (inactive) | 41.2 µM (inactive) | > 100 µM (inactive) | 81.7 µM (inactive) | 48.8 µM (inactive) | 23.8 µM (inactive) | 68.5 µM (inactive) | 18.4 µM (inactive) | 28 µM (inactive) | 87.1 µM (inactive) | 16.2 µM (inactive) | 11.9 µM (inactive) |
| COc1ccc(C(SCCO)(c2ccc(OC)cc2)c2ccc(OC)cc2)cc1 | 16.1 µM (inactive) | 10.7 µM (inactive) | 14.3 µM (inactive) | 16.4 µM (inactive) | 3.19 µM (inactive) | 15.3 µM (inactive) | 15.9 µM (inactive) | 14.8 µM (inactive) | 4.9 µM (inactive) | 10.9 µM (inactive) | 13.9 µM (inactive) | 12.4 µM (inactive) | 14.9 µM (inactive) | 12 µM (inactive) | 12.4 µM (inactive) | 12.2 µM (inactive) | 10.6 µM (inactive) | 14 µM (inactive) |
| O=C1NC2(CCNCC2)Oc2ccccc21 | > 100 µM (inactive) | > 100 µM (inactive) | > 100 µM (inactive) | > 100 µM (inactive) | > 100 µM (inactive) | > 100 µM (inactive) | > 100 µM (inactive) | > 100 µM (inactive) | > 100 µM (inactive) | > 100 µM (inactive) | > 100 µM (inactive) | > 100 µM (inactive) | > 100 µM (inactive) | 64.1 µM (inactive) | > 100 µM (inactive) | > 100 µM (inactive) | > 100 µM (inactive) | > 100 µM (inactive) |
| CC1=C(Br)C(=O)c2c(O)ccc(O)c2C1=O | 0.71 µM (active) | 2.37 µM (inactive) | 0.303 µM (active) | 0.849 µM (active) | 0.133 µM (active) | 1.57 µM (inactive) | 0.431 µM (active) | 0.182 µM (active) | 0.251 µM (active) | 0.0258 µM (active) | 2.67 µM (inactive) | 0.153 µM (active) | 0.481 µM (active) | 1.42 µM (inactive) | 1.67 µM (inactive) | 0.435 µM (active) | 1.5 µM (inactive) | 0.71 µM (active) |
| CCOC(=O)c1ccc(/N=C2\SC(=S)N(c3ccc(F)cc3)\C2=N/c2ccc(C(=O)OCC)cc2)cc1 | 12.6 µM (inactive) | 22.1 µM (inactive) | 14.2 µM (inactive) | > 58.7 µM (inactive) | 12.3 µM (inactive) | 24.8 µM (inactive) | 6.75 µM (inactive) | 18.8 µM (inactive) | 12.9 µM (inactive) | 3.68 µM (inactive) | 21.8 µM (inactive) | 5.97 µM (inactive) | 7.53 µM (inactive) | 9.68 µM (inactive) | 48.3 µM (inactive) | 10.5 µM (inactive) | 20.6 µM (inactive) | 8.07 µM (inactive) |
| CC1CC2=C(C1)C(C1(C)C(=O)CC3C(C1=O)C3(C)C)C(C)C2=O (stereo not given) | > 100 µM (inactive) | > 100 µM (inactive) | > 100 µM (inactive) | > 100 µM (inactive) | > 100 µM (inactive) | > 100 µM (inactive) | > 100 µM (inactive) | > 100 µM (inactive) | > 100 µM (inactive) | 62.7 µM (inactive) | > 100 µM (inactive) | > 100 µM (inactive) | > 100 µM (inactive) | > 100 µM (inactive) | > 100 µM (inactive) | > 100 µM (inactive) | > 100 µM (inactive) | > 100 µM (inactive) |
| CC1=C(C(=O)Nc2ccccc2)C2(CCCCC2)C(C#N)=C(SCC(=O)Nc2ccc(Br)cc2)N1 | 8.15 µM (inactive) | 2.15 µM (inactive) | 2.51 µM (inactive) | 10.1 µM (inactive) | 3.34 µM (inactive) | 3.2 µM (inactive) | 3.61 µM (inactive) | 4.51 µM (inactive) | 3.41 µM (inactive) | 2.82 µM (inactive) | 6.84 µM (inactive) | 2.06 µM (inactive) | 5.58 µM (inactive) | 4.54 µM (inactive) | 4.2 µM (inactive) | 3.46 µM (inactive) | 4.51 µM (inactive) | 6.85 µM (inactive) |
| Cc1ccc(C)c(C2NC(=O)c3ccccc3N2)c1 (stereo not given) | 5.25 µM (inactive) | 5.07 µM (inactive) | 0.601 µM (active) | 1.93 µM (inactive) | 0.274 µM (active) | 2.99 µM (inactive) | 0.719 µM (active) | 0.454 µM (active) | 0.0986 µM (active) | 0.506 µM (active) | 2.95 µM (inactive) | 0.689 µM (active) | 4.31 µM (inactive) | 1.95 µM (inactive) | 1.12 µM (inactive) | 0.335 µM (active) | 1.21 µM (inactive) | 1.31 µM (inactive) |
| COc1ccc2nc3cccc([N+](=O)[O-])c3c(NCCO)c2c1 | 0.00565 µM (active) | 0.0238 µM (active) | 0.00178 µM (active) | 0.0208 µM (active) | 0.00199 µM (active) | 0.0255 µM (active) | 0.00762 µM (active) | 0.018 µM (active) | 0.00895 µM (active) | 0.0255 µM (active) | 0.0378 µM (active) | 0.017 µM (active) | 0.0083 µM (active) | 0.0126 µM (active) | 0.0684 µM (active) | 0.0188 µM (active) | 0.0211 µM (active) | 0.0182 µM (active) |
| O=C1CC2(CCNCC2)C(=O)N1N1CCCCC1 | > 100 µM (inactive) | > 100 µM (inactive) | > 100 µM (inactive) | > 100 µM (inactive) | > 100 µM (inactive) | > 100 µM (inactive) | > 100 µM (inactive) | > 100 µM (inactive) | > 100 µM (inactive) | > 100 µM (inactive) | > 100 µM (inactive) | > 100 µM (inactive) | > 100 µM (inactive) | > 100 µM (inactive) | > 100 µM (inactive) | > 100 µM (inactive) | > 100 µM (inactive) | > 100 µM (inactive) |
| CC(C)(C)OC(=O)NC(Cc1ccc([N+](=O)[O-])cc1)C(=O)NC(CCCCNC(=O)OCc1ccccc1)C(=O)ON1C(=O)CCC1=O (stereo not given) | > 100 µM (inactive) | > 100 µM (inactive) | 73.5 µM (inactive) | > 100 µM (inactive) | 14.4 µM (inactive) | > 100 µM (inactive) | 70.3 µM (inactive) | > 100 µM (inactive) | > 100 µM (inactive) | 57.9 µM (inactive) | > 100 µM (inactive) | > 100 µM (inactive) | > 100 µM (inactive) | > 100 µM (inactive) | 40 µM (inactive) | > 100 µM (inactive) | > 100 µM (inactive) | > 100 µM (inactive) |
